Assay results from US20230134059A1, “[…] AND METHODS FOR CORRECTING, SLOWING, REDUCING, AND/OR CONTROLLING THE PROGRESSION OF MYOPIA IN CONJUNCTION WITH USE OF ATROPINE OR RELATED COMPOUNDS” (Brien Holden Vision Institute Limited, priority 2020, published 2023).
Like-named read-outs stand apart in the source and are kept apart here.

Key:
[1] = test system: myopic children aged 8-10 years; settings: cited from earlier work
[2] = test system: eye of individuals treated for myopia; settings: cited from earlier work
myopia progression = settings: Atropine eye drops 0.01% to 1.0%; cited from earlier work
children aged 6-12 years = settings: concentrations greater than 0.1% Atropine; cited from earlier work
eye of a -2.00 D myope = assay: Spherical aberration of combined spectacle lens and eye system after Atropine-induced pupil increase; format: in vivo; settings: pupillary diameter increased from about 3 mm to about 6 mm with use of Atropine
Excerpt: FIG. 1A illustrates a schematic plot of pupil diameters resulting from use of Atropine, a widely used muscarinic receptor antagonist and a pharmaceutical agent for myopia therapy. […] Considering FIG. 1A, it is observed that use of 0.01% Atropine which to date is the lowest concentration used for treatment of myopia in individuals, increases the photopic pupillary diameter by approximately 1 mm. Increasing the concentration to anywhere from 0.025% to 0.1% Atropine, increases the photopic pupil size from about 2 mm to about 3 mm. With the highest concentration of 0.5% Atropine, the increase in photopic pupil size was largest and at about 3 mm. An increase in pupil size increases aberrations of the eye. […] FIG. 1B illustrates the increase in higher order aberrations from 3rd to 6th order as determined by aberrometry for the myopic eye of an individual who has a distance refractive error of approximately −2.00 D. It is observed that there is a significant increase in aberrations with a larger pupil. An increase in the pupil size may result in a functional decrement in visual performance and one or more unwanted effects such as poorer visual performance, reduced contrast, blurred vision, increased glare and increased photophobia (sensitivity to light). […]

Q: What does the source list for `CN1[C@@H]2CC[C@H]1C[C@@H](OC(=O)C(CO)c1ccccc1)C2` (some centres unmarked) [Atropine]?
A: request photochromic progressive lenses, % of the time ([1]; atropine 0.01%): 6%; request photochromic progressive lenses, % of the time ([1]; atropine 0.1%): 61%; request photochromic progressive lenses, % of the time ([1]; atropine 0.5%): 70%; increase in photopic pupillary diameter ([2]; 0.01% Atropine): approximately 1 mm; increase in photopic pupil size ([2]; 0.5% Atropine (highest concentration)): about 3 mm; efficacy in slowing myopia, concentration dependent response (myopia progression): the higher the concentration, the greater the efficacy; reduction in amplitude of accommodation (children aged 6-12 years): more than half; effective increase of spherical aberration of combined spectacle lens and eye system (eye of a -2.00 D myope): about +0.50 D
